Assay [1] concerns the target T1, Menin/Histone-lysine N-methyltransferase MLL (Homo sapiens, UniProt O00255). Description: Inhibition of menin (unknown origin)-fluorescein-labeled MLL1 (unknown origin) after 1 hr by fluorescence polarization assay. Format: protein assay.
Assay [2] addresses T1, Menin/Histone-lysine N-methyltransferase MLL. Description: Inhibition of menin (unknown origin)-FITC-tagged MLL1 (unknown origin) protein-protein interaction after 1 hr by fluorescence polarization assay.
Assay [3] has the same target. Description: Inhibition of full length human menin-MLL1 (4 to 43 residues) (unknown origin) protein-protein interaction after 1 hr by fluorescence polarization assay. A general note: In fluorescence polarisation assays a small probe gives low polarisation when free and higher when bound to something large.

T1 sequence (O00255 whole entry): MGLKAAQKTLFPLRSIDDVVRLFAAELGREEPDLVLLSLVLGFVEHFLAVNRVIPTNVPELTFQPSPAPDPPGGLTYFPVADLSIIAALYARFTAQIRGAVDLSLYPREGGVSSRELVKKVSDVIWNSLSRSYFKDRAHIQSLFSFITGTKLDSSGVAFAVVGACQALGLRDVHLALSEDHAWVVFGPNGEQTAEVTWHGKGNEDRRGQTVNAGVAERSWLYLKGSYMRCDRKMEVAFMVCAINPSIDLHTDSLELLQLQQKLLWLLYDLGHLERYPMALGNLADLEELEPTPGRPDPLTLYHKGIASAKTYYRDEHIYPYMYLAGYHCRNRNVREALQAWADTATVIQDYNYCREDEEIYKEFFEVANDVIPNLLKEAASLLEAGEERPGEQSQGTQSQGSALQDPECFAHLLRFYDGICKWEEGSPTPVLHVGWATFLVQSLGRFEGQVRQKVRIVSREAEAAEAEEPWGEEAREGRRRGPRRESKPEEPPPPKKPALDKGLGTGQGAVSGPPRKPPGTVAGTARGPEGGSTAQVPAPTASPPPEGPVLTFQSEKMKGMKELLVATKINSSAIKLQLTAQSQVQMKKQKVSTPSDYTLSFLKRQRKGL
T1 sequence (Q03164 1-2718 partner limits assumed): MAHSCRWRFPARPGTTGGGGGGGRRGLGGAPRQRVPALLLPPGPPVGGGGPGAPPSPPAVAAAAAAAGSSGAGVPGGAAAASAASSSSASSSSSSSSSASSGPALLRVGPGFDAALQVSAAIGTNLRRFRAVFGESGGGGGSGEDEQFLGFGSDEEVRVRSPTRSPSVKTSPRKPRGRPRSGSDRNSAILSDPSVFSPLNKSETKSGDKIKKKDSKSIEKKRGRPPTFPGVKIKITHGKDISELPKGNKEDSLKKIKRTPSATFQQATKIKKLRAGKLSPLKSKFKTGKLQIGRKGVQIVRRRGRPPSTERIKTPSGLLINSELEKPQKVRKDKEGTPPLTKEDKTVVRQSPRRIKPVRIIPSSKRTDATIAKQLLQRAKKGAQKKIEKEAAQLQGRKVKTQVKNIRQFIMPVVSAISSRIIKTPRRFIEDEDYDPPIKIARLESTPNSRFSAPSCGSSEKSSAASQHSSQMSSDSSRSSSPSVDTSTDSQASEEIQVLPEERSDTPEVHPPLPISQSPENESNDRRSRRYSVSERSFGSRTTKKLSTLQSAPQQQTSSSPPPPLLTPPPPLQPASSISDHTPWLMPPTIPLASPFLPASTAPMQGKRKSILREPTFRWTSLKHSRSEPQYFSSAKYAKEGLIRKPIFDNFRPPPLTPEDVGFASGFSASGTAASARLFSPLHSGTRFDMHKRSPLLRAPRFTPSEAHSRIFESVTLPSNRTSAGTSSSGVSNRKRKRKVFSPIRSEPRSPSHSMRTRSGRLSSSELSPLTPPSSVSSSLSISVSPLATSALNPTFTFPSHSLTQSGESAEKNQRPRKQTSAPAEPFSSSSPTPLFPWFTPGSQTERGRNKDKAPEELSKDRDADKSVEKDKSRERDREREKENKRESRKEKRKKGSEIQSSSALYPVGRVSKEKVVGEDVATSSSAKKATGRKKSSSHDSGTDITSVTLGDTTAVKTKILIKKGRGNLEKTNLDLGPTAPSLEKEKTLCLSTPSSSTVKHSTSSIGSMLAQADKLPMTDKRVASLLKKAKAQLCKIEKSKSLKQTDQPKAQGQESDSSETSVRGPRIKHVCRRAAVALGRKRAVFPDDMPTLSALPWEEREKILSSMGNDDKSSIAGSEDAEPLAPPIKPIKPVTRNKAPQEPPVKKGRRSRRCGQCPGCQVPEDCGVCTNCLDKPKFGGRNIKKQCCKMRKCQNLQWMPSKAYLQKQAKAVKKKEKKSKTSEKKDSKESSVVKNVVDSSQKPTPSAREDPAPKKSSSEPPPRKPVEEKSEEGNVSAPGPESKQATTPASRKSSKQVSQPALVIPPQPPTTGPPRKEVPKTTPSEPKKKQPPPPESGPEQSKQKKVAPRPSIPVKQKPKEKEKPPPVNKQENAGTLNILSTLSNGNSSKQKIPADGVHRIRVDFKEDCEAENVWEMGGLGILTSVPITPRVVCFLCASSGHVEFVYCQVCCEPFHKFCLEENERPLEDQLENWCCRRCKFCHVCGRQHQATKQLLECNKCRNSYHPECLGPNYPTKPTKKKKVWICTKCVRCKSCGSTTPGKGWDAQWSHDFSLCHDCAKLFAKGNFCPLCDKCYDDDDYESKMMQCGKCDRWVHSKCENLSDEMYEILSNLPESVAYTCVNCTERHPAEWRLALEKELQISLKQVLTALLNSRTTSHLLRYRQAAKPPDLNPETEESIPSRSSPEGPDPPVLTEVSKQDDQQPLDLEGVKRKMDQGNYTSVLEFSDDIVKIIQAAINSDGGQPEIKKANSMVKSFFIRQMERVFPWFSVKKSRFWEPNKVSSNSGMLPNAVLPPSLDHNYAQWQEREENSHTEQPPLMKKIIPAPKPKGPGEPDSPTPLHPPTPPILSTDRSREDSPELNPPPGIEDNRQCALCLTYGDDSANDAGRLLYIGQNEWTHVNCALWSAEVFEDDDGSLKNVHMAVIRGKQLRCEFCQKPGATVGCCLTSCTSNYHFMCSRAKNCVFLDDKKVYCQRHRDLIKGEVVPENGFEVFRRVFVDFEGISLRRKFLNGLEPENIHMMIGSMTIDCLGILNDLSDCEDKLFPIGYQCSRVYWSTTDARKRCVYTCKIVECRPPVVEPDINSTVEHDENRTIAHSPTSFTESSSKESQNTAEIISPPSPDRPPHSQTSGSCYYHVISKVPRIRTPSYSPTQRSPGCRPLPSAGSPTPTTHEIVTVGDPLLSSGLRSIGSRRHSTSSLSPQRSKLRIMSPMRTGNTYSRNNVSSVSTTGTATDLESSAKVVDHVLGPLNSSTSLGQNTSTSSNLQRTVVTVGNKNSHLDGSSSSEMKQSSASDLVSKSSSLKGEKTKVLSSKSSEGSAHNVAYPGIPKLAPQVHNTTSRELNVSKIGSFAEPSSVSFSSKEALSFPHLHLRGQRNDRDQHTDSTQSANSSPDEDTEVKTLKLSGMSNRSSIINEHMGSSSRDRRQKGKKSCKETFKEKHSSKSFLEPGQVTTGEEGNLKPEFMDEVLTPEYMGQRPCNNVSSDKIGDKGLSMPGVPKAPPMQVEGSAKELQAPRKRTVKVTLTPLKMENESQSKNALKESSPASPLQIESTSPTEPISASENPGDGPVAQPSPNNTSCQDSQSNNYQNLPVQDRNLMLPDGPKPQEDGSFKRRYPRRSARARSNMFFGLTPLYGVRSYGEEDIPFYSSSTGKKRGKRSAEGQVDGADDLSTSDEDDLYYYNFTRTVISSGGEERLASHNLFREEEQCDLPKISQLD
T1 sequence (Q03164 2719-3969 partner limits assumed): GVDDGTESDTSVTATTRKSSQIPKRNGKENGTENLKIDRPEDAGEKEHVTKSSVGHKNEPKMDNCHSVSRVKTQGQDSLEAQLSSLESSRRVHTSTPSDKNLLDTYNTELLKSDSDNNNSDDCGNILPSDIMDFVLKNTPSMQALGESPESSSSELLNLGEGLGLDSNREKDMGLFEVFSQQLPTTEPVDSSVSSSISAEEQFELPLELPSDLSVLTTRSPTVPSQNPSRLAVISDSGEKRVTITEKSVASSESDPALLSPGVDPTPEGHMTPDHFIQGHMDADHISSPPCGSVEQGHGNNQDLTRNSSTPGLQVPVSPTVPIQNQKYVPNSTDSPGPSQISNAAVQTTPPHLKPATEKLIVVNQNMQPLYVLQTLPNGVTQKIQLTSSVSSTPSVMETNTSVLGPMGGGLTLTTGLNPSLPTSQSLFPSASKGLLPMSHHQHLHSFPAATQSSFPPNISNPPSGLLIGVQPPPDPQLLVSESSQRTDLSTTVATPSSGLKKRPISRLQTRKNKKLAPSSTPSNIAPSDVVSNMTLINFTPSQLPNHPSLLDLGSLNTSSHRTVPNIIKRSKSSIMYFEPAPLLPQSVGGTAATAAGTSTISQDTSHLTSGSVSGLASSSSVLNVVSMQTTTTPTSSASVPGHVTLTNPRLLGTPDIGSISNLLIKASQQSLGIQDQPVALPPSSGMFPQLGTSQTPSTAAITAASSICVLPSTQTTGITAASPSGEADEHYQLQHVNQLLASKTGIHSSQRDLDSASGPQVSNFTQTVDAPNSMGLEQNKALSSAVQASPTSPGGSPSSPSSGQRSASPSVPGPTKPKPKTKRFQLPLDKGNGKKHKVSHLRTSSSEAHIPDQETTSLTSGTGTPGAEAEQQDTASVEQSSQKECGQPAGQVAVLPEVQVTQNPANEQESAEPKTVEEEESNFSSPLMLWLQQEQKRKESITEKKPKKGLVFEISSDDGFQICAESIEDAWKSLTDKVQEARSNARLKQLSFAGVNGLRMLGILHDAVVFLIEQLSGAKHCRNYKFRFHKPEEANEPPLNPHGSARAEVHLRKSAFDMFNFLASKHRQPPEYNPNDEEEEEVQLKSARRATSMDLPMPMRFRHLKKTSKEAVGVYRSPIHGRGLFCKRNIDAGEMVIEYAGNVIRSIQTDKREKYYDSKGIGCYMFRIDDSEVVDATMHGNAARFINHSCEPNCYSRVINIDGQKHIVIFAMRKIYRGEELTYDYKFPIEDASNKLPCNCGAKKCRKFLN

A word on the IC50: it is the concentration that gives 50% inhibition. Read a low IC50 as higher potency. With `CSc1cc2c(N3CCN(c4nnc(C(F)(F)F)s4)CC3)ncnc2s1`, the midpoint of inhibition in assay [1], the IC50, lay at 20 µM.
Same read-out and setting: to `CCCc1cc2c(N3CCN(c4nnc(C(F)(F)F)[nH]4)CC3)ncnc2s1` belongs 200 µM.
As for `CCc1cc2c(N3CCN(c4nncs4)CC3)ncnc2s1`, in assay [2], the IC50 was found to be 193 µM.
As to `FC(F)(F)Cc1cc2c(N3CCN(c4nnc(C(F)(F)F)o4)CC3)ncnc2s1`, the IC50 in assay [1] worked out at 1.4 µM.
On the same count and under the same terms, to `CCc1cc2c(N3CCN(c4nnc(C(F)(F)F)s4)CC3)ncnc2s1` belongs 1.3 µM.
In assay [2], `CCc1cc2c(N3CCN(c4nccs4)CC3)ncnc2s1` registered an IC50 of 46 µM.
In assay [1], `CC1(C)CN=C(N2CCN(c3ncnc4sc(CCCl)cc34)CC2)S1` had an IC50 of 0.193 µM.
In assay [2], `CCc1cc2c(N3CCN(c4ccccn4)CC3)ncnc2s1` came in with an IC50 of 58 µM.
In assay [3], `CC(c1cc2c(N3CCN(C4=NCC(C)(C)S4)CC3)ncnc2s1)C(F)(F)F` (stereo not given) gave a half-maximal inhibitory concentration (IC50) of 0.765 µM.
In turn, `CCCCc1cc2c(N3CCN(C4=NCC(C)(C)S4)CC3)ncnc2s1` gave an IC50 in assay [2] of 0.75 µM.
Same read-out and setting: to `CCc1cc2c(N3CCN(c4ncccn4)CC3)ncnc2s1` belongs 87 µM.
Still for that read-out and setting: to `CCc1cc2c(N3CCN(Cc4ccc(Cl)cc4)CC3)ncnc2s1` belongs 14 µM.
Consider `CCCc1cc2c(N3CCN(c4nnc(C(F)(F)F)s4)CC3)ncnc2s1`, for which half-maximal inhibition in assay [1] (IC50) was put at 0.65 µM. This lies in the sub-micromolar range.
For the molecule `CCc1cc2c(N3CCN(Cc4ccccc4)CC3)ncnc2s1`, in assay [2], inhibition was half-maximal at 52 µM (IC50).
Consider `FC(F)(F)c1nnc(N2CCN(c3ncnc4sc(C5CC5)cc34)CC2)s1`, for which, in assay [1], the IC50 was determined as 2 µM. In other words, the single-digit micromolar range.

The values above are taken from ChEMBL document CHEMBL4261532, “Theoretical models of inhibitory activity for inhibitors of protein-protein interactions: targeting menin-mixed lineage leukemia with small molecules” (Medchemcomm, 2017).
